Data on four compounds can be found in patent US11628199B2, “Medicine for combined use in cancer treatment” (SICHUAN JIUZHANG BIOLOGICAL SCIENCE AND TECHNOLOGY CO., LTD, priority 2017, dated 2023).

For assay [1], the system named is RM-1 mouse prostate cancer cell lines. The experiment in a line: In vivo mouse xenograft tumor of RM-1 prostate cancer, chlorogenic acid combined with abarelix or degarelix. How it is done:
Test drug: chlorogenic acid, abarelix, degarelix.
Test cell lines: RM-1 mouse prostate cancer cell lines.
(§1) Cells in exponential phase of growth were taken out, digested with trypsin to […], and then cell suspension was prepared by addition of saline.
When the tumor volume in the negative group was about 0.5 cm^3, the experiment was stopped. The mice were sacrificed by cervical dislocation and weighed. The tumors were removed and weighed to calculate the tumor inhibitory rate.

The test system of assay [2] is drug-resistant RM-1 mouse prostate cancer cell lines (abarelix-induced). The experiment in a line: In vivo mouse xenograft tumor of drug-resistant RM-1 prostate cancer, chlorogenic acid combined with abarelix. The note with it: for Tumor weight: x ± s; for inhibitory rate of mouse xenograft tumor of drug-resistant RM-1 prostate cancer (in words): groups and doses as in Table 3. The procedure:
Test drug: chlorogenic acid, abarelix.
Test cell lines: RM-1 mouse prostate cancer cell lines. RM-1 cell lines were induced by increasing concentration gradient of aberlix and established by clone and screen. Prior to experiment, cell lines were cultured without drug.
Test animals: Kunming mice, ♂, weight 17-24 g.
Drug-resistant cell lines after removal of drug were adjusted to the concentration of 1×10^7/mL with culture medium, and inoculated under the right anterior armpit of mice at 0.1 ml/mouse.
After the mean diameter of tumor reached 100 mm^3, mice were divided into 4 groups, i.e. abarelix group, chlorogenic acid+abarelix group, chlorogenic acid group, and the negative control group, respectively.
Abarelix group: intraperitoneal injection, once every seven days, 15 mg/kg, two doses in total.
chlorogenic acid+abarelix group: chlorogenic acid was intraperitoneally injected, once every day, 10 mg/kg, continuous administration for 5 days; After withdrawal of chlorogenic acid, abarelix was intraperitoneally injected on the next day, once every 7 days, 15 mg/kg, two doses in total.
Chlorogenic acid group: intraperitoneal injection, once every day, 10 mg/kg, continuous administration for 5 days; after that, saline was intraperitoneally injected, once every day, continuing 10 days.
Negative control group: intraperitoneal injection of saline, once every day, continuing 15 days.
After completion of administration, the experiment was stopped, and mice were sacrificed by cervical dislocation and weighed. The tumors were removed and weighed to calculate the tumor inhibitory rate.

Assay [3] relates to EMT-6 mouse breast cancer cell lines. In words: In vivo mouse xenograft tumor of EMT-6 breast cancer, chlorogenic acid combined with fulvestrant. How it is done:
Test drug: chlorogenic acid, fulvestrant.
Test cell lines: EMT-6 mouse breast cancer cell lines.
as §1
Fulvestrant group received drug once by intraperitoneal injection on the next day after inoculation; chlorogenic acid group received drug once every day by intraperitoneal injection from the next day after inoculation, and the drug was successively administrated 15 times; combined medicine group received intraperitoneal injection of fulvestrant once on the next day after inoculation, and intraperitoneal injection of chlorogenic acid once every day from the next day after inoculation; the negative control group received saline by intraperitoneal injection once every day from the next day after inoculation, and saline was continuously given 15 times. When the tumor volume in the negative group was about 0.5 cm^3, the experiment was stopped. The mice were sacrificed by cervical dislocation and weighed. The tumors were removed and weighed to calculate the tumor suppression rate.
(2) If both drugs are combined, Q=E(a+b)/(Ea+Eb−Ea×Eb), in which E(a+b) is the inhibition rate for the combination of two drugs, i.e. the tested combined effect; Ea and Eb is respectively the inhibition rates of two drugs when they are separately used; the denominator (Ea+Eb−Ea×Eb) is the expected combined effect.

Setting [4] is: abarelix 15 mg·kg^−1 i.p. once every seven days, two doses.
The mark [5] stands for this setting: degarelix 30 mg·kg^−1 s.c. once.
Setting [6] is: fulvestrant 40 mg·kg^−1 i.p. once.
Where [7] appears, read: chlorogenic acid 10 mg·kg^−1 i.p. once daily, 15 times.
Where [8] appears, read: chlorogenic acid 20 mg·kg^−1 i.p. once daily, 15 times.
[9] abbreviates: chlorogenic acid 40 mg·kg^−1 i.p. once daily, 15 times.

Where a SMILES comes first, the peptide text is derived from it. [ ]: non-standard residue; d: D form. The star is where a group is joined. dPhe(4-NHCONH2) = NC(=O)Nc1ccc(C[C@@H](N)C(=O)O)cc1; Dihydroorotyl(S) = O=C1C[C@@H](C(=O)*)NC(=O)N1; dPhe(4-Cl) = N[C@H](Cc1ccc(Cl)cc1)C(=O)O; Phe(4-NH2) = Nc1ccc(C[C@H](N)C(=O)O)cc1; d2Nal = N[C@H](Cc1ccc2ccccc2c1)C(=O)O; Lys(iPr) = CC(C)NCCCC[C@H](N)C(=O)O; NMeY = CN[C@@H](Cc1ccc(O)cc1)C(=O)O; d3Pal = N[C@H](Cc1cccnc1)C(=O)O

Turning to `CC(=O)N[C@H](Cc1ccc2ccccc2c1)C(=O)N[C@H](Cc1ccc(Cl)cc1)C(=O)N[C@H](Cc1cccnc1)C(=O)N[C@@H](CO)C(=O)N(C)[C@@H](Cc1ccc(O)cc1)C(=O)N[C@H](CC(N)=O)C(=O)N[C@@H](CC(C)C)C(=O)N[C@@H](CCCCNC(C)C)C(=O)N1CCC[C@H]1C(=O)N[C@H](C)C(N)=O` [Abarelix, abarelix] (Ac-[d2Nal][dPhe(4-Cl)][d3Pal]S[NMeY][dN]L[Lys(iPr)]P[dA]-NH2), the Tumor inhibitory rate in assay [1] (abarelix 15 mg·kg^−1 i.p. once) came out at 42.73%; in assay [2] (setting [4]), 4.84%. Further, the results for the Tumor weight in assay [1] (abarelix 15 mg·kg^−1 i.p. once) and in assay [2] (setting [4]) were 0.886 ± 0.521 g and 2.339 ± 0.614 g, respectively. For the same compound, the “inhibitory rate of mouse xenograft tumor of drug-resistant RM-1 prostate cancer (in words)” value in assay [2] was “weaker, without obvious suppression effect”.
As for `CC(=O)N[C@H](Cc1ccc2ccccc2c1)C(=O)N[C@H](Cc1ccc(Cl)cc1)C(=O)N[C@H](Cc1cccnc1)C(=O)N[C@@H](CO)C(=O)N[C@@H](Cc1ccc(NC(=O)[C@@H]2CC(=O)NC(=O)N2)cc1)C(=O)N[C@H](Cc1ccc(NC(N)=O)cc1)C(=O)N[C@@H](CC(C)C)C(=O)N[C@@H](CCCCNC(C)C)C(=O)N1CCC[C@H]1C(=O)N[C@H](C)C(N)=O` [Degarelix, degarelix] (Ac-[d2Nal][dPhe(4-Cl)][d3Pal]S[Phe(4-NH2)](Dihydroorotyl(S))[dPhe(4-NHCONH2)]L[Lys(iPr)]P[dA]-NH2), in assay [1] (setting [5]), the Tumor inhibitory rate is 50.61% and the Tumor weight was determined as 0.764 ± 0.218 g.
Regarding `C[C@]12CC[C@@H]3c4ccc(O)cc4C[C@@H](CCCCCCCCC[S+]([O-])CCCC(F)(F)C(F)(F)F)[C@H]3[C@@H]1CC[C@@H]2O` (stereo partly drawn) [Fulvestrant, fulvestrant], in assay [3] (setting [6]), the Tumor inhibitory rate was found to be 43.40% and the Tumor weight is 0.746 ± 0.311 g.
Take `O=C(/C=C/c1ccc(O)c(O)c1)O[C@@H]1C[C@](O)(C(=O)O)C[C@@H](O)[C@H]1O` [chlorogenic acid, 3-o-caffeoylquinic acid]: the Tumor inhibitory rate in assay [3] (setting [7]) is listed as 31.94%; in assay [3] (setting [8]), 36.95%; in assay [3] (setting [9]), 42.03%; in assay [1] (setting [7]) it was 24.05%; in assay [1] (setting [8]), 27.86%; in assay [1] (setting [9]), 28.57%. In assay [2] (chlorogenic acid 10 mg·kg^−1 i.p. once daily for 5 days), the Tumor inhibitory rate amounted to 8.41%. The Tumor weight in assay [3] (chlorogenic acid 10 mg·kg^−1 i.p. once daily, 15 times, BALB/C-nu mice) was determined as 0.897 ± 0.346 g; in assay [3] (chlorogenic acid 20 mg·kg^−1 i.p. once daily, 15 times, BALB/C-nu mice), 0.831 ± 0.221 g; in assay [3] (chlorogenic acid 40 mg·kg^−1 i.p. once daily, 15 times, BALB/C-nu mice) it was 0.764 ± 0.539 g; in assay [1] (chlorogenic acid 10 mg·kg^−1 i.p. once daily, 15 times, Kunming mice) it was 1.175 ± 0.117 g; in assay [1] (chlorogenic acid 20 mg·kg^−1 i.p. once daily, 15 times, Kunming mice) it was 1.116 ± 0.358 g; in assay [1] (chlorogenic acid 40 mg·kg^−1 i.p. once daily, 15 times, Kunming mice), 1.105 ± 0.641 g. Besides, the Tumor weight in assay [2] (chlorogenic acid 10 mg·kg^−1 i.p. once daily for 5 days, then saline 10 days) stood at 2.251 ± 0.581 g. Moreover, in assay [2], the “inhibitory rate of mouse xenograft tumor of drug-resistant RM-1 prostate cancer (in words)” value is given as “weaker, without obvious suppression effect”.
